Measured values published in paper PMC7031697, “Mechanism of Activation of AMPK by Cordycepin” (Cell Chemical Biology, 2020).
Like-named read-outs stand apart in the source and are kept apart here.

Experiments:
AMPK DKO U2OS cells = assay: Clonal survival assay, AMPK DKO U2OS; type: cell-based; conditions: Homo sapiens, 8 h incubation, read-out: half-maximal effect on clonal survival
Source text: AMPK-α1^-/- -α2^-/- U2OS cells were generated using the Cas9 (D10A) double nickase system. Pairs of guide RNAs targeted to exon 4 in both PRKAA1 and PRKAA2, along with screening primers for genotyping, were designed and cloned by Thomas Macartney and are available by contacting MRCPPU Reagents and Services (https://mrcppureagents.dundee.ac.uk). Sense guides were cloned into the puromycin-selectable pBABED puro U6 vector and antisense guides into the Cas9 (D10A) vector pX335. U2OS cells carrying a Flp recombinase target site were transfected with 1 μg of each plasmid using Fugene6 according to manufacturers’ instructions. At 24 and 48 hr after transfection, medium was replaced with fresh medium containing 1 μg/ml puromycin. […] Clones were expanded and screened for loss of AMPK protein and activity by Western blotting using anti-AMPK-α and pACC antibody normalised to total ACC detected using streptavidin. […]
Cells were seeded into 6-well plates at equal density and treated in triplicate at 40% to 60% confluence with vehicle or cordycepin for the indicated time. […] Cells in control wells were counted using a hemocytometer and 1000 cells from vehicle and cordycepin-treated wells were seeded in triplicate into 10 cm dishes containing 10 ml of medium. […] The dishes were washed with water and the number of colonies counted manually.

[1] = biological target: T1, AMPK complexes containing the R531G mutant (Homo sapiens, UniProt Q9UGJ0, R531G); assay: AMPK activity in anti-FLAG immunoprecipitates, HepG2 cells with FLAG-tagged AMPK-γ2 R531G mutant; type: cell-based; conditions: 1 h, 300 μM cordycepin, 10 mM phenformin or 300 μM A-769662
T1 construct: expressed in transfected cells; host or cells: HepG2 (transient, Fugene 6)
T1 sequence (Q9UGJ0 whole entry R531G, one chain of several): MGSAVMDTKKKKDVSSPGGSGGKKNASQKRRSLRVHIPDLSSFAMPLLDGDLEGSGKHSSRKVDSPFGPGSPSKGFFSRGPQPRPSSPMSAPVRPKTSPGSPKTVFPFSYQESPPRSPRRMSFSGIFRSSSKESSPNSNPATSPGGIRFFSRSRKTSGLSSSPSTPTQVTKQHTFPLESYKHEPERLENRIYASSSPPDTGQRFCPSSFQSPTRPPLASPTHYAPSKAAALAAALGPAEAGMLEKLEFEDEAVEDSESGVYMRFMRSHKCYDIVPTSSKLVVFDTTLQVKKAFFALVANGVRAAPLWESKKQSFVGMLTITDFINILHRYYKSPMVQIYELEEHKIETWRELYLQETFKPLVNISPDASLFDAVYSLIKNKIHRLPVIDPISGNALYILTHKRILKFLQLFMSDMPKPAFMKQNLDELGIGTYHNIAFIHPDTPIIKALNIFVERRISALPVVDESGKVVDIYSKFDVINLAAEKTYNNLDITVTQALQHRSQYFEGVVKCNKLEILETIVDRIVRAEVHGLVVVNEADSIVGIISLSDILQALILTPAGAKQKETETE
Procedure: (§1) HepG2 cells ([…]) were cultured in Minimum Essential Medium (MEM) supplemented with 10% (v/v) FBS, 1% (v/v) non-essential amino acids and 1% (v/v) penicillin/streptomycin. Transient transfection of DNAs encoding FLAG-tagged AMPK-γ2 or an R531G mutant of AMPK-γ2 were carried out 36-48 hr prior to experiments using Fugene 6 according to manufacturers’ instructions. U2OS cells ([…]) were cultured in Dulbecco’s Modified Eagle’s Medium (DMEM) supplemented with 10% (v/v) FBS and 1% (v/v) penicillin/streptomycin.
HepG2 cells were transiently transfected with DNAs encoding FLAG-tagged wild type AMPK-γ2 or the R531G mutant, using Fugene 6 according to the manufacturers’ instructions. After transfection for 48 hr, cells were treated with various agents as described, and cell lysates prepared ([Hawley et al., 2018]). FLAG-tagged AMPK was then immunoprecipitated from 150 μg total protein by incubation at 4°C for 2 hr on a roller mixer with 9 μl of EZview Red anti-FLAG M2 affinity gel. After extensive washing, the immunoprecipitates were assayed for AMPK activity (50 μg per assay in a total volume of 50 μl) using the AMARA peptide (200 μM) as substrate in the presence of 200 μM AMP, 5 mM MgCl2 and 200 μM γ-^32P-ATP as described previously ([Fyffe et al., 2018]).

HepG2 cells [2] = assay: Cellular oxygen consumption (Seahorse XF24); type: cell-based, human
Procedure: Cellular oxygen consumption rate (OCR) was measured using a Seahorse XF24 Extracellular Flux Analyser with 50,000 cells per well, as described previously ([Hawley et al., 2010]). HepG2 cells were cultured overnight in 24 well plates (50,000 cells/well) in standard medium as above. One hour before the experiment, the medium was replaced with 675 μl of unbuffered medium, pH 7.4: 8.3 g/L DMEM base (Sigma), 2 mM GlutaMax-1, 5 mM glucose, 32 mM NaCl, and 40 μM Phenol Red. Compounds (75 μl) were injected into wells as specified, and OCR continuously measured as described by the manufacturers of the Analyser ([Wu et al., 2007]).

HepG2 cells [3] = assay: Clonal survival assay, HepG2; type: cell-based, human; conditions: for EC50: Homo sapiens, read-out: half-maximal effect on cell survival
Procedure: Cells were seeded into 6-well plates at equal density and treated in triplicate at 40% to 60% confluence with vehicle or cordycepin for the indicated time. Cells were trypsinized in 1 ml trypsin:EDTA for 5 min and diluted in 1 ml of complete medium. Cells in control wells were counted using a hemocytometer and 1000 cells from vehicle and cordycepin-treated wells were seeded in triplicate into 10 cm dishes containing 10 ml of medium. The dishes were incubated at 37°C for 10-15 days. […] The dishes were washed with water and the number of colonies counted manually.

[4] = set-up: method as in Wei et al., 2009; conditions: mice, single oral dose of 63 mg/kg; ref Wei et al., 2009; cited from earlier work
AMPK [5] = assay: AMPK activity in anti-AMPK-α immunoprecipitates from HepG2 cells treated with cordycepin; type: cell-based, human
Procedure: as §1
(§2) Endogenous AMPK in crude cell lysates was first immunoprecipitated using an equal mixture of anti-α1 and –α2 antibodies (150 μg protein) by incubation at 4°C for 2 hr on a roller mixer. After extensive washing, the immunoprecipitates were assayed for AMPK activity (50 μg per assay, total assay volume 50 μl) using the AMARA peptide (200 μM) as substrate in the presence of 200 μM AMP, 5 mM MgCl2 and 200 μM [γ-^32P]ATP ([Fyffe et al., 2018]).

AMPK [6] = assay: AMPK activation in HepG2 cells in medium without serum but with 0.02% BSA; type: cell-based, human; conditions: medium with 0.02% BSA vs 10% serum
Procedure: as §2

AMPK [7] = system: AMPK; set-up: method as in Guo et al., 2010; conditions: HepG2 cells, medium without serum but with 0.02% (w/v) BSA; ref Guo et al., 2010; cited from earlier work

Nc1ncnc2c1ncn2[C@@H]1O[C@H](CO)C[C@H]1O [cordycepin, 3′-deoxyadenosine]
EC50 (AMPK DKO U2OS cells): 44 ± 2 µM | activation of AMPK complexes containing the R531G mutant [1]: not activated | effect on basal oxygen uptake (HepG2 cells [2]; 30 μM to 1 mM): only minor effects | inhibition of basal oxygen uptake (HepG2 cells [2]; 300 μM after 45 min and 1 mM after 30 and 45 min): modest inhibition | effect on maximal oxygen uptake (HepG2 cells [2]; after addition of the uncoupler 2,4-dinitrophenol): no significant effects | effect on residual oxygen uptake (HepG2 cells [2]; after subsequent addition of rotenone and antimycin A): no significant effects | effect on clonal survival (HepG2 cells [3]; 100 μM): only partial effects | effect on clonal survival (HepG2 cells [3]; 300 μM): almost complete death | effect on clonal survival (HepG2 cells [3]; 1 mM): almost complete death | EC50 (HepG2 cells [3]; 2 h treatment): 130 µM | EC50 (HepG2 cells [3]; 8 h treatment): 70 µM | EC50 (HepG2 cells [3]; 24 h treatment): 35 µM | peak plasma concentration [4]: 10 µM | plasma half-life [4]: 2.1 h | time to peak plasma concentration [4]: 1.5 h | AMPK activation (AMPK [5]; 30 μM cordycepin, 1 h, medium with serum): No activation was evident | time of return of AMPK phosphorylation and activation to baseline (AMPK [5]; 100 μM cordycepin, time course): ≤ 4 h | peak increase in phosphorylation and activation of AMPK (AMPK [5]; 100 μM cordycepin, time course, at 1 h): ≈ 2 fold | EC50 (AMPK [5]; cordycepin 1 h, medium with serum, read-out: half-maximal effect (EC50) on AMPK kinase activity): 310 ± 60 µM | kinase activity of AMPK, maximum increase (AMPK [5]; cordycepin 1 h, medium with serum, ±SEM): 7 ± 1 fold | potency of AMPK activation compared with medium containing serum (AMPK [6]): much more potent | concentration at which AMPK was activated (AMPK [7]): ≥ 1 µM
